Key:
Assay type in all cases: cell-based
[1] = molecular target: T1, Sodium-dependent noradrenaline transporter (Homo sapiens, UniProt P23975); assay: Inhibition of [3H]-NE reuptake in human NET transfected into HEK293 cells at 10 uM by liquid scintillation counting method relative to venlafaxine HCl
[2] = molecular target: T2, Sodium-dependent serotonin transporter (Homo sapiens, UniProt P31645); assay: Inhibition of [3H]-5-HT reuptake in human SERT transfected into HEK293 cells at 1 uM by liquid scintillation counting method relative to venlafaxine HCl
Target sequence in this assay (P31645 whole entry, looked up): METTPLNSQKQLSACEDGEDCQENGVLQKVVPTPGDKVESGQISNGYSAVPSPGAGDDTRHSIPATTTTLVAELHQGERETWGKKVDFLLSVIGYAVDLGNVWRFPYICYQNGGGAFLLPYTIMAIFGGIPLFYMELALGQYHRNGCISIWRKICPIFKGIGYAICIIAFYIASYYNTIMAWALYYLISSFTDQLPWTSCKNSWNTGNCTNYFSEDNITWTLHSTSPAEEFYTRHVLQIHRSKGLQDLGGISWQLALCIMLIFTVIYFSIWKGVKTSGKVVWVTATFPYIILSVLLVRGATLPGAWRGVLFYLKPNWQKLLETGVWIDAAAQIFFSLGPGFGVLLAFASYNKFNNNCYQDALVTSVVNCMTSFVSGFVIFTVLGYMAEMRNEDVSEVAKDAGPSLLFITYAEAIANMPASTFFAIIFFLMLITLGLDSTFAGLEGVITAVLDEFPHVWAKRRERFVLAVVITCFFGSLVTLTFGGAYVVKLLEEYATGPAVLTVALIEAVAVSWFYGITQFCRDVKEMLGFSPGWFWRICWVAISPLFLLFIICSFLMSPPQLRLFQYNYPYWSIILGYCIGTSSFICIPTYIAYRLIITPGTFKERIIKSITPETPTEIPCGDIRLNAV

[3] = molecular target: T2, Sodium-dependent serotonin transporter; assay: Inhibition of [3H]-5-HT reuptake in human SERT transfected into HEK293 cells by liquid scintillation counting method
Target sequence in this assay (P31645 whole entry): as the sequence (P31645 whole entry, looked up) above

[4] = molecular target: T1, Sodium-dependent noradrenaline transporter; assay: Inhibition of [3H]-NE reuptake in human NET transfected into HEK293 cells by liquid scintillation counting method
[5] = molecular target: T1, Sodium-dependent noradrenaline transporter; assay: Inhibition of [3H]-NE reuptake in human NET transfected into HEK293 cells at 1 uM by liquid scintillation counting method relative to […]

T1 sequence (P23975 whole entry): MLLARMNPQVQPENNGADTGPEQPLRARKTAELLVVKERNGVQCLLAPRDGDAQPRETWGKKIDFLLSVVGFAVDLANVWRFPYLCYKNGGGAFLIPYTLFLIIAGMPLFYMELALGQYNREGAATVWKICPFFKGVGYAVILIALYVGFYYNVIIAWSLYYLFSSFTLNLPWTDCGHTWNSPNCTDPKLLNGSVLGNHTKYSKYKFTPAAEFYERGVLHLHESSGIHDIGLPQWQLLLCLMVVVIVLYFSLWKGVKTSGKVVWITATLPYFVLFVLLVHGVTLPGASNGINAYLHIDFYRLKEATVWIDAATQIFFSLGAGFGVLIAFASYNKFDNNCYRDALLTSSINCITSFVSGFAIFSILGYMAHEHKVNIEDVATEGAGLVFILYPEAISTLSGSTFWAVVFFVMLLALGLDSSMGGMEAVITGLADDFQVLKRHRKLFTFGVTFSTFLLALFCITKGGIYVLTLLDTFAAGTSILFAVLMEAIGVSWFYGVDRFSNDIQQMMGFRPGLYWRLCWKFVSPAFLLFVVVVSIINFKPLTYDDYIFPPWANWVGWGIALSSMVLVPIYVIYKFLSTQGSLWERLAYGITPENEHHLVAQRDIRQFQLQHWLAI

Compound `Fc1ccc(N2CCN(CCCN3CCC(Cc4ccccc4)CC3)CC2)cc1` has a fold change (FC) [1] of 1.4 and a fold change (FC) [2] of 0.27.
`Cc1cccc(C)c1N1CCN(CCN2CCC(Cc3ccccc3)CC2)CC1` gave a fold change (FC) [1] of 1.26 and a fold change (FC) [2] of 0.93.
With `Clc1ccc(N2CCN(CCCN3CCC(Cc4ccccc4)CC3)CC2)c(Cl)c1` the fold change (FC) [1] was 1.45, the fold change (FC) [2] was 1.06 and the IC50 [3] was 1460 nM. For the same compound, the IC50 [4] was 760 nM.
Compound `Brc1ccc(N2CCN(CCN3CCC(Cc4ccccc4)CC3)CC2)cc1` has a fold change (FC) [1] of 1.31, a fold change (FC) [2] of 1.01 and an IC50 [3] of 4920 nM. It also gave an IC50 [4] of 2100 nM.
For `Cc1cccc(C)c1N1CCN(CCCN2CCC(Cc3ccccc3)CC2)CC1`, the fold change (FC) [1] was 1.37, the fold change (FC) [2] was 2.83 and the IC50 [3] was 2000 nM. It also gave an IC50 [4] of 1070 nM.
Work on `Clc1cccc(N2CCN(CCN3CCC(Cc4ccccc4)CC3)CC2)c1Cl` yielded a fold change (FC) [5] of 0.41 and a fold change (FC) [2] of 0.64.
`Brc1ccc(N2CCN(CCCN3CCC(Cc4ccccc4)CC3)CC2)cc1` was tested, and the fold change (FC) [1] was 1.6, the fold change (FC) [2] was 0.87 and the IC50 [3] was 2250 nM. It also gave an IC50 [4] of 610 nM.
With `Clc1cccc(N2CCN(CCCN3CCC(Cc4ccccc4)CC3)CC2)c1Cl` the fold change (FC) [1] was 1.63, the fold change (FC) [2] was 0.79 and the IC50 [3] was 2510 nM. The IC50 [4] was 560 nM.
`FC(F)(F)c1ccc(N2CCN(CCN3CCC(Cc4ccccc4)CC3)CC2)cc1` showed a fold change (FC) [1] of 1.26 and a fold change (FC) [2] of 0.69.
For `Clc1ccc(N2CCN(CCN3CCC(Cc4ccccc4)CC3)CC2)cc1`, the fold change (FC) [1] was 1.18 and the fold change (FC) [2] was 0.56.
In the case of `Clc1cccc(N2CCN(CCN3CCC(Cc4ccccc4)CC3)CC2)c1`, the fold change (FC) [1] is reported as 1.29 and the fold change (FC) [2] is reported as 0.41.
With `COc1ccccc1N1CCN(CCCN2CCC(Cc3ccccc3)CC2)CC1` the fold change (FC) [1] was 1.36, the fold change (FC) [2] was 2.4 and the IC50 [3] was 1760 nM. For the same compound, the IC50 [4] was 890 nM.
`c1ccc(CC2CCN(CCCN3CCN(c4ccccc4)CC3)CC2)cc1` showed a fold change (FC) [1] of 1.51, a fold change (FC) [2] of 0.58 and an IC50 [3] of 1360 nM. For the same compound, the IC50 [4] was 600 nM.
Compound `Clc1cccc(N2CCN(CCCN3CCC(Cc4ccccc4)CC3)CC2)c1` has a fold change (FC) [1] of 1.41, a fold change (FC) [2] of 0.69 and an IC50 [3] of 1180 nM. The IC50 [4] was 380 nM.
In the case of `c1ccc(CC2CCN(CCN3CCN(c4ncccn4)CC3)CC2)cc1`, the fold change (FC) [5] is reported as -0.05 and the fold change (FC) [2] is reported as 0.33.
Compound `COc1ccccc1N1CCN(CCN2CCC(Cc3ccccc3)CC2)CC1` has a fold change (FC) [5] of 0.2 and a fold change (FC) [2] of 0.27.
In the case of `Clc1ccc(N2CCN(CCN3CCC(Cc4ccccc4)CC3)CC2)c(Cl)c1`, the fold change (FC) [1] is reported as 1.29, the fold change (FC) [2] is reported as 0.85 and the IC50 [3] is reported as 4320 nM. It also gave an IC50 [4] of 2500 nM.
Compound `Fc1ccc(N2CCN(CCN3CCC(Cc4ccccc4)CC3)CC2)cc1` has a fold change (FC) [1] of 1.16 and a fold change (FC) [2] of 0.41.
Compound `c1ccc(CC2CCN(CCN3CCN(c4ccccn4)CC3)CC2)cc1` has a fold change (FC) [5] of 0.08 and a fold change (FC) [2] of 0.31.
`c1ccc(CC2CCN(CCCN3CCN(c4ccccn4)CC3)CC2)cc1` gave a fold change (FC) [1] of 1.23 and a fold change (FC) [2] of 0.32.
`FC(F)(F)c1ccc(N2CCN(CCCN3CCC(Cc4ccccc4)CC3)CC2)cc1` showed a fold change (FC) [1] of 1.34, a fold change (FC) [2] of 0.76 and an IC50 [3] of 2610 nM. For the same compound, the IC50 [4] was 1170 nM.
`c1ccc(CC2CCN(CCCN3CCN(c4ncccn4)CC3)CC2)cc1` showed a fold change (FC) [1] of 1.01 and a fold change (FC) [2] of 0.08.
For `Clc1ccc(N2CCN(CCCN3CCC(Cc4ccccc4)CC3)CC2)cc1`, the fold change (FC) [1] was 1.46, the fold change (FC) [2] was 0.44 and the IC50 [3] was 2030 nM. For the same compound, the IC50 [4] was 530 nM.
Compound `c1ccc(CC2CCN(CCN3CCN(c4ccccc4)CC3)CC2)cc1` has a fold change (FC) [1] of 1 and a fold change (FC) [2] of 0.89.

From ChEMBL document CHEMBL3774305, “Design, synthesis, and biological evaluation of arylpiperazine-benzylpiperidines with dual serotonin and norepinephrine reuptake inhibitory activities” (Bioorg Med Chem, 2016)
